The results in this text go back to patent US7098012B1, “DNA demethylase, therapeutic and diagnostic uses thereof” (McGill University, priority 1997, dated 2006).

The structures appear in SMILES notation. “Also recorded” adds a separate entry of the source.

The test system of assay [1] is DNA dMTase. The assay can be described thus: Demethylation of [mdC32pdG]n substrate (conversion of mdCMP to dCMP) with additives or pretreatment. Format: biochemical, human. The note with it: 500 μM, initial rate conditions, FIG. 2a. As to the method:
(A) To assay the conversion of methyl-dCMP (mdCMP) to dCMP we used a previously described method (Szyf et al., 1995). Briefly, α^32P labeled, fully methylated poly[mdC^32PdG]n substrate was prepared as follows. One hundred ng of a double-stranded fully methylated (mdCpdG) oligomer (Pharmacia) were denatured by boiling, which was followed by partial annealing at room temperature. The complementary strand was extended with Klenow fragment (Boehringer Mannheim) using methyl-5-dCTP (mdCTP, 0.1 mM) (Boehringer Mannheim) and […] (100 μCi, 3000 Ci/mmol), and the unincorporated nucleotides were removed by chromatography through a NAP-5 column (Pharmacia). The NAP-5 chromatography was repeated to exclude minor contamination with unincorporated nucleotides. As a control a non-methylated poly[dC^32pdG]n substrate was similarly prepared except that a nonmethylated dCpdG oligomer served as a template and dCTP was used in the extension reaction. The column fractions (30 μl), described in the experimental procedures were incubated with 1 ng of poly[mdC^32pdG]n substrate for 1 hour at 37° C. in a buffer L containing 25% glycerol (v/v) and 5 mM EDTA. […] The digestion products were loaded onto a thin layer chromatography plate (TLC) (Kodak, 13255 Cellulose), separated in a medium containing, 132 ml Isobutyric acid:40 ml water:4 ml ammonia solution, autoradiographed and the intensity of the different spots was determined using a phosphorimager (Fuji, BAS 2000). ^32P labeled substrates and tritium labeled substrates were phosphoimaged using BAS 2000 plate and BAS-TR2040 phosphorimager plate respectively. (B) The second method determined removal of methylated residues from methylated DNA by measuring disappearance of ^3H—CH3 or ^14C—CH3 from the reaction mixture. […] The number of methyl groups that were removed from the DNA by the different fractions was determined by subtracting the remaining counts in each of the fractions from the counts remaining in the control. […]

For assay [2], the target named is DNA dMTase (Homo sapiens, UniProt Q9UBB5). The assay can be described thus: Volatilization of radioactive methyl residues assay. Format: biochemical. As to conditions: imidazole 1 μM to 10 mM; FIG. 16.
DNA dMTase (Homo sapiens, UniProt Q9UBB5), sequence (Q9UBB5 whole entry): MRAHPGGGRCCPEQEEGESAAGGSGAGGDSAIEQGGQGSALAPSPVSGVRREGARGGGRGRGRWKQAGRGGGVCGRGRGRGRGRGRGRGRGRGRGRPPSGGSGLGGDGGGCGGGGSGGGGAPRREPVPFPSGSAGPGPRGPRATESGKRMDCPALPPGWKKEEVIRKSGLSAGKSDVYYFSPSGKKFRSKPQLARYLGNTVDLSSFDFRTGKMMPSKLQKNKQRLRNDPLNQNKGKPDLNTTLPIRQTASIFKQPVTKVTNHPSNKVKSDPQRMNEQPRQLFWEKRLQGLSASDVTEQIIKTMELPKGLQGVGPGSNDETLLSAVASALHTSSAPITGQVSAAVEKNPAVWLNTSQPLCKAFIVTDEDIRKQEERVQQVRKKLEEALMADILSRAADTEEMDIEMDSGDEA

Turning to `Nc1ccn([C@H]2CC[C@@H](COP(=O)(O)OP(=O)(O)OP(=O)(O)O)O2)c(=O)n1` [ddCTP], the “inhibition of demethylation of the [mdC32pdG]n substrate” value with DNA dMTase [1] was “insensitive; also recorded: does not inhibit”.
As for `c1c[nH]cn1` [imidazole], the “inhibition of DNA dMTase activity” value on DNA dMTase [2] is given as “dose dependent inhibition”.
For the compound `Cc1cn([C@H]2C[C@H](O)[C@@H](COP(=O)(O)OP(=O)(O)OP(=O)(O)O)O2)c(=O)nc1N` [methyl-dCTP, methyl-5-dCTP], the “inhibition of demethylation of the [mdC32pdG]n substrate” value is “nor is it inhibited” in the assay on DNA dMTase [1] and “not affected” with DNA dMTase [1] (listed as methyl dCTP).
